PMC5218480 (PLoS ONE, 2017)

Tested on: MV-4-11 cells
Assay: Gene expression microarray analysis (Affymetrix PrimeView) and GSEA
Type: cell-based, human
Set-up: RFU PODN (11730768_x_at) / Fold change /veh PODN (11730768_x_at) / RFU LINC00158 (11744669_a_at) / Fold change /veh LINC00158 (11744669_a_at) / RFU DUSP10 (11751237_a_at) / Fold change /veh DUSP10 (11751237_a_at) / RFU ID3 (11757404_x_at) / Fold change /veh ID3 (11757404_x_at) / RFU PLEKHG5 (11737974_s_at) / Fold change /veh PLEKHG5 (11737974_s_at) / RFU LRRC4B (11730491_at) / Fold change /veh LRRC4B (11730491_at) / RFU GIMAP4 (11747438_a_at) / Fold change /veh GIMAP4 (11747438_a_at) / RFU KRT8 (11758183_x_at) / Fold change /veh KRT8 (11758183_x_at) / RFU CNN1 (11734310_a_at) / Fold change /veh CNN1 (11734310_a_at) / RFU VPS37D (11726825_at) / Fold change /veh VPS37D (11726825_at) / RFU C10orf10 (11716522_x_at) / Fold change /veh C10orf10 (11716522_x_at) / RFU KIR2DL2 /// KIR2DL4 /// KIR2DL5A /// KIR2DL5B /// KIR2DS1 /// KIR2DS2 /// KIR2DS3 /// KIR2DS4 /// KIR3DL3 /// KIR3DL3 /// KIR3DS1 (11738374_at) / Fold change /veh KIR2DL2 /// KIR2DL4 /// KIR2DL5A /// KIR2DL5B /// KIR2DS1 /// KIR2DS2 /// KIR2DS3 /// KIR2DS4 /// KIR3DL3 /// KIR3DL3 /// KIR3DS1 (11738374_at) / RFU C1QL1 (11718748_at) / Fold change /veh C1QL1 (11718748_at) / RFU TMPRSS4 (11747572_a_at) / Fold change /veh TMPRSS4 (11747572_a_at) / RFU HAMP (11756126_x_at) / Fold change /veh HAMP (11756126_x_at) / RFU RNFT2 (11725882_a_at) / Fold change /veh RNFT2 (11725882_a_at) / RFU NR4A2 (11747474_a_at) / Fold change /veh NR4A2 (11747474_a_at) / RFU ABCC12 (11746883_a_at) / Fold change /veh ABCC12 (11746883_a_at) / RFU TMEM136 (11760407_x_at) / Fold change /veh TMEM136 (11760407_x_at) / RFU CLDN22 /// WWC2 (11732394_at) / Fold change /veh CLDN22 /// WWC2 (11732394_at) / RFU HLA-DPB1 (11760878_x_at) / Fold change /veh HLA-DPB1 (11760878_x_at) / RFU SPINT1 (11716480_a_at) / Fold change /veh SPINT1 (11716480_a_at) / RFU GAP43 (11754022_s_at) / Fold change /veh GAP43 (11754022_s_at) / RFU A4GNT (11735810_at) / Fold change /veh A4GNT (11735810_at) / RFU PRB3 (11715151_x_at) / Fold change /veh PRB3 (11715151_x_at) / RFU TUBB4B (11761932_at) / Fold change /veh TUBB4B (11761932_at) / RFU CAPN14 (11732068_a_at) / Fold change /veh CAPN14 (11732068_a_at) / RFU TMCC2 (11721928_a_at) / Fold change /veh TMCC2 (11721928_a_at) / RFU IRGQ (11745062_a_at) / Fold change /veh IRGQ (11745062_a_at) / RFU FAM174B (11720279_a_at) / Fold change /veh FAM174B (11720279_a_at) / RFU TMPRSS4 (11748680_a_at) / Fold change /veh TMPRSS4 (11748680_a_at) / RFU FAM212B (11763350_a_at) / Fold change /veh FAM212B (11763350_a_at) / RFU PLEKHG5 (11743358_a_at) / Fold change /veh PLEKHG5 (11743358_a_at) / RFU ZSCAN30 (11745921_a_at) / Fold change /veh ZSCAN30 (11745921_a_at) / RFU CMKLR1 (11741424_a_at) / Fold change /veh CMKLR1 (11741424_a_at) / RFU LOC101060620 /// MAPK8IP1 (11723275_at) / Fold change /veh LOC101060620 /// MAPK8IP1 (11723275_at) / RFU SPTSSB (11747773_x_at) / Fold change /veh SPTSSB (11747773_x_at) / RFU PRSS12 (11739890_at) / Fold change /veh PRSS12 (11739890_at) / RFU BIN1 (11741810_x_at) / Fold change /veh BIN1 (11741810_x_at) / RFU WNT11 (11732464_a_at) / Fold change /veh WNT11 (11732464_a_at) / RFU C10orf10 (11716521_a_at) / Fold change /veh C10orf10 (11716521_a_at) / RFU C5orf56 (11738089_at) / Fold change /veh C5orf56 (11738089_at) / RFU CYB561 (11721691_x_at) / Fold change /veh CYB561 (11721691_x_at) / RFU ANKRD19P (11752326_a_at) / Fold change /veh ANKRD19P (11752326_a_at) / RFU OR2T12 /// OR2T33 /// OR2T8 (11738714_s_at) / Fold change /veh OR2T12 /// OR2T33 /// OR2T8 (11738714_s_at) / RFU VCAN (11748164_a_at) / Fold change /veh VCAN (11748164_a_at) / RFU JSRP1 (11732532_at) / Fold change /veh JSRP1 (11732532_at) / RFU KRTAP10-11 (11738290_x_at) / Fold change /veh KRTAP10-11 (11738290_x_at) / RFU MYO3A (11730013_a_at) / Fold change /veh MYO3A (11730013_a_at) / RFU EBF3 (11725865_a_at) / Fold change /veh EBF3 (11725865_a_at) / RFU CAMK2N1 (11719241_x_at) / Fold change /veh CAMK2N1 (11719241_x_at) / RFU C5orf56 (11738088_a_at) / Fold change /veh C5orf56 (11738088_a_at) / RFU OLFML3 (11715873_a_at) / Fold change /veh OLFML3 (11715873_a_at) / RFU LOC100653217 /// NTM (11731650_a_at) / Fold change /veh LOC100653217 /// NTM (11731650_a_at) / RFU MAPK11 (11762145_a_at) / Fold change /veh MAPK11 (11762145_a_at) / RFU FIZ1 (11724087_x_at) / Fold change /veh FIZ1 (11724087_x_at) / RFU OASL (11726364_x_at) / Fold change /veh OASL (11726364_x_at) / RFU SOX15 (11748057_x_at) / Fold change /veh SOX15 (11748057_x_at) / RFU CD79A (11719716_a_at) / Fold change /veh CD79A (11719716_a_at) / RFU HIST1H1D (11736915_at) / Fold change /veh HIST1H1D (11736915_at) / RFU CASKIN2 (11723855_a_at) / Fold change /veh CASKIN2 (11723855_a_at) / RFU LOC730098 (11760151_x_at) / Fold change /veh LOC730098 (11760151_x_at) / RFU OR4N2 (11742367_at) / Fold change /veh OR4N2 (11742367_at) / RFU PRRT2 (11749266_a_at) / Fold change /veh PRRT2 (11749266_a_at) / RFU SNX32 (11753110_a_at) / Fold change /veh SNX32 (11753110_a_at) / RFU CDHR5 (11726645_a_at) / Fold change /veh CDHR5 (11726645_a_at) / RFU RCAN1 (11760418_a_at) / Fold change /veh RCAN1 (11760418_a_at) / RFU FAM167A (11723789_a_at) / Fold change /veh FAM167A (11723789_a_at) / RFU FAM26E (11764081_at) / Fold change /veh FAM26E (11764081_at) / RFU ISYNA1 (11749810_s_at) / Fold change /veh ISYNA1 (11749810_s_at) / RFU ACY1 (11761880_at) / Fold change /veh ACY1 (11761880_at) / RFU 11764098_at / Fold change /veh 11764098_at / RFU SAMD14 (11745864_x_at) / Fold change /veh SAMD14 (11745864_x_at) / RFU NPB (11741838_a_at) / Fold change /veh NPB (11741838_a_at) / RFU TMPRSS6 (11731388_a_at) / Fold change /veh TMPRSS6 (11731388_a_at) / RFU KRTAP10-2 (11738614_at) / Fold change /veh KRTAP10-2 (11738614_at) / RFU ARHGAP8 /// PRR5-ARHGAP8 (11727945_x_at) / Fold change /veh ARHGAP8 /// PRR5-ARHGAP8 (11727945_x_at) / RFU KRTAP5-7 /// NADSYN1 (11734609_at) / Fold change /veh KRTAP5-7 /// NADSYN1 (11734609_at) / RFU RASL12 (11751679_a_at) / Fold change /veh RASL12 (11751679_a_at) / RFU CDKN2B (11736163_a_at) / Fold change /veh CDKN2B (11736163_a_at) / RFU PRF1 (11729649_at) / Fold change /veh PRF1 (11729649_at) / RFU, ZNF638 /// ZNF638-IT1 / Fold change vs veh, ZNF638 /// ZNF638-IT1 / RFU, PANK3 / Fold change vs veh, PANK3 / RFU, SH3YL1 / Fold change vs veh, SH3YL1 / RFU, ZEB2 / Fold change vs veh, ZEB2 / RFU, NRIP1 / Fold change vs veh, NRIP1 / RFU, PTTG1IP / Fold change vs veh, PTTG1IP / RFU, CAPN2 / Fold change vs veh, CAPN2 / RFU, MED14 / Fold change vs veh, MED14 / RFU, SNORA58 / Fold change vs veh, SNORA58 / RFU, C1orf63 / Fold change vs veh, C1orf63 / RFU, LRRFIP1 / Fold change vs veh, LRRFIP1 / RFU, NDUFAF7 / Fold change vs veh, NDUFAF7 / RFU, SLC12A2 / Fold change vs veh, SLC12A2 / RFU, IBTK / Fold change vs veh, IBTK / RFU, ESF1 / Fold change vs veh, ESF1 / Fold change vs veh, TMEM50B / RFU, TAOK1 / Fold change vs veh, TAOK1 / RFU, ACBD3 / Fold change vs veh, ACBD3 / RFU, TMA16 / Fold change vs veh, TMA16 / RFU, RWDD3 / Fold change vs veh, RWDD3 / RFU, BCAT1 / Fold change vs veh, BCAT1 / RFU, EDEM3 / Fold change vs veh, EDEM3 / RFU, TMEM33 / Fold change vs veh, TMEM33 / RFU, WDR75 / Fold change vs veh, WDR75 / RFU, AHCTF1 / Fold change vs veh, AHCTF1 / RFU, TFRC / Fold change vs veh, TFRC / RFU, ZDHHC17 / Fold change vs veh, ZDHHC17 / RFU, NOM1 / Fold change vs veh, NOM1 / RFU, ARL8B / Fold change vs veh, ARL8B / RFU, ZBTB11 / Fold change vs veh, ZBTB11 / RFU, TAMM41 / Fold change vs veh, TAMM41 / RFU, KIAA1704 /// LOC100996395 / Fold change vs veh, KIAA1704 /// LOC100996395 / RFU, ING1 / Fold change vs veh, ING1 / RFU, TRMT61B / Fold change vs veh, TRMT61B / RFU, FUBP3 / Fold change vs veh, FUBP3 / RFU, TP53 / Fold change vs veh, TP53 / RFU, TNKS2 / Fold change vs veh, TNKS2 / RFU, ZFP14 / Fold change vs veh, ZFP14 / RFU, ACTR2 / Fold change vs veh, ACTR2 / RFU, PPP3R1 / Fold change vs veh, PPP3R1 / RFU, PIK3R1 / Fold change vs veh, PIK3R1 / RFU, HNRNPA1 / Fold change vs veh, HNRNPA1 / RFU, RNF170 / Fold change vs veh, RNF170 / RFU, ZNF28 / Fold change vs veh, ZNF28 / RFU, RNGTT / Fold change vs veh, RNGTT / RFU, OGT / Fold change vs veh, OGT / RFU, BRD1 / Fold change vs veh, BRD1 / RFU, MARS / Fold change vs veh, MARS / RFU, ZNF655 / Fold change vs veh, ZNF655 / RFU, FAHD1 / Fold change vs veh, FAHD1 / RFU, BDP1 / Fold change vs veh, BDP1 / RFU, LRRCC1 / Fold change vs veh, LRRCC1 / RFU, ARID1A / Fold change vs veh, ARID1A / RFU, ZNF146 / Fold change vs veh, ZNF146 / RFU, ZNF330 / Fold change vs veh, ZNF330 / RFU, GPN3 / Fold change vs veh, GPN3 / RFU, C9orf123 / Fold change vs veh, C9orf123 / RFU, N4BP2L2 / Fold change vs veh, N4BP2L2 / RFU, ARFIP1 / Fold change vs veh, ARFIP1 / RFU, FAM179B / Fold change vs veh, FAM179B / RFU, BCL10 / Fold change vs veh, BCL10 / RFU, UHRF1BP1L / Fold change vs veh, UHRF1BP1L / RFU, BET1 / Fold change vs veh, BET1 / RFU, CNOT2 / Fold change vs veh, CNOT2 / RFU, ZNF268 / Fold change vs veh, ZNF268 / Fold change vs veh, ZNF507 / RFU, DGCR2 / Fold change vs veh, DGCR2 / RFU, WDSUB1 / Fold change vs veh, WDSUB1 / Fold change vs veh, HSP90B1 /// MIR3652 / RFU, ADSS / Fold change vs veh, ADSS / RFU, GK / Fold change vs veh, GK / RFU, ZNF148 / Fold change vs veh, ZNF148 / RFU, TAF9 / Fold change vs veh, TAF9 / RFU, SLC1A5 / Fold change vs veh, SLC1A5 / RFU, SLMO2 / Fold change vs veh, SLMO2 / RFU, ABCC4 / Fold change vs veh, ABCC4 / RFU, LOC101060439 /// RAP1B / Fold change vs veh, LOC101060439 /// RAP1B / RFU, RFX7 / Fold change vs veh, RFX7 / RFU, GTPBP10 / Fold change vs veh, GTPBP10 / RFU, CNEP1R1 / Fold change vs veh, CNEP1R1 / RFU, BIVM-ERCC5 /// ERCC5 / Fold change vs veh, BIVM-ERCC5 /// ERCC5 / RFU, ILF3 / Fold change vs veh, ILF3 / RFU 11762660_at / Fold change /veh 11762660_at / RFU VCAN (11757783_s_at) / Fold change /veh VCAN (11757783_s_at) / RFU DDX43 (11728927_at) / Fold change /veh DDX43 (11728927_at) / RFU KRT8 (11758188_x_at) / Fold change /veh KRT8 (11758188_x_at) / RFU NKD1 (11759106_at) / Fold change /veh NKD1 (11759106_at) / RFU SRD5A1 (11742802_a_at) / Fold change /veh SRD5A1 (11742802_a_at) / RFU TPSAB1 /// TPSB2 (11721975_s_at) / Fold change /veh TPSAB1 /// TPSB2 (11721975_s_at) / RFU GSTM3 (11746129_a_at) / Fold change /veh GSTM3 (11746129_a_at) / RFU IL23R (11737362_x_at) / Fold change /veh IL23R (11737362_x_at) / RFU TMEM51 (11727254_a_at) / Fold change /veh TMEM51 (11727254_a_at) / RFU PIWIL2 (11732686_x_at) / Fold change /veh PIWIL2 (11732686_x_at) / RFU ORM1 (11744905_x_at) / Fold change /veh ORM1 (11744905_x_at) / RFU CCDC152 (11743942_at) / Fold change /veh CCDC152 (11743942_at) / RFU ECM1 (11717891_a_at) / Fold change /veh ECM1 (11717891_a_at) / RFU IL23R (11748794_a_at) / Fold change /veh IL23R (11748794_a_at) / RFU TNFAIP8L3 (11732012_x_at) / Fold change /veh TNFAIP8L3 (11732012_x_at) / RFU MBOAT4 (11741988_at) / Fold change /veh MBOAT4 (11741988_at) / RFU 11764193_at / Fold change /veh 11764193_at / RFU TMEM53 (11763286_at) / Fold change /veh TMEM53 (11763286_at) / RFU MAGEB2 (11727129_at) / Fold change /veh MAGEB2 (11727129_at) / RFU TMEM200A (11744735_a_at) / Fold change /veh TMEM200A (11744735_a_at) / RFU CCDC152 (11751479_a_at) / Fold change /veh CCDC152 (11751479_a_at) / RFU FAM211A (11726209_a_at) / Fold change /veh FAM211A (11726209_a_at) / RFU RGS16 (11746705_a_at) / Fold change /veh RGS16 (11746705_a_at) / RFU VCAN (11755009_s_at) / Fold change /veh VCAN (11755009_s_at) / RFU RHOB (11743442_s_at) / Fold change /veh RHOB (11743442_s_at) / RFU RGS16 (11720943_a_at) / Fold change /veh RGS16 (11720943_a_at) / RFU RGS16 (11720944_at) / Fold change /veh RGS16 (11720944_at) / RFU, VPS4B / Fold change vs veh, VPS4B / RFU, CREB1 / Fold change vs veh, CREB1 / RFU, DNAJC13 / Fold change vs veh, DNAJC13 / RFU, GNAQ / Fold change vs veh, GNAQ / RFU, CDK5R1 / Fold change vs veh, CDK5R1 / RFU, ZRANB3 / Fold change vs veh, ZRANB3 / RFU, CUL4A / Fold change vs veh, CUL4A / RFU, CCNY / Fold change vs veh, CCNY / RFU, UFL1 / Fold change vs veh, UFL1 / RFU, COG3 / Fold change vs veh, COG3 / RFU, DIAPH2 / Fold change vs veh, DIAPH2 / RFU, SKA2 / Fold change vs veh, SKA2 / RFU, AFF3 / Fold change vs veh, AFF3 / RFU, LMF1 / Fold change vs veh, LMF1 / RFU, IPO11 / Fold change vs veh, IPO11 / RFU, DFFB / Fold change vs veh, DFFB / RFU, FOXP1 / Fold change vs veh, FOXP1 / RFU, CARD8 / Fold change vs veh, CARD8 / RFU, STRN3 / Fold change vs veh, STRN3 / RFU, ADK / Fold change vs veh, ADK / RFU, RASSF2 / Fold change vs veh, RASSF2 / RFU, WIPF1 / Fold change vs veh, WIPF1 / RFU, LARP1B / Fold change vs veh, LARP1B / RFU, RASA1 / Fold change vs veh, RASA1 / RFU, RB1 / Fold change vs veh, RB1 / RFU, PPFIA1 / Fold change vs veh, PPFIA1 / RFU, MAT2A / Fold change vs veh, MAT2A / RFU, CCT5 / Fold change vs veh, CCT5 / RFU, WDR92 / Fold change vs veh, WDR92 / RFU, CUX1 / Fold change vs veh, CUX1 / RFU, TTC7A / Fold change vs veh, TTC7A / RFU, TMEM135 / Fold change vs veh, TMEM135 / RFU, DEPTOR / Fold change vs veh, DEPTOR / RFU, CPM / Fold change vs veh, CPM / RFU, DNAJB6 / Fold change vs veh, DNAJB6 / RFU, CACNA2D3 / Fold change vs veh, CACNA2D3 / RFU, DTX4 / Fold change vs veh, DTX4 / RFU, TFCP2 / Fold change vs veh, TFCP2 / RFU, GMCL1 /// GMCL1P1 / Fold change vs veh, GMCL1 /// GMCL1P1 / RFU, AEBP2 / Fold change vs veh, AEBP2 / RFU, SNHG1 /// SNORD22 /// SNORD25 /// SNORD26 /// SNORD27 /// SNORD28 /// SNORD29 /// SNORD31 / Fold change vs veh, SNHG1 /// SNORD22 /// SNORD25 /// SNORD26 /// SNORD27 /// SNORD28 /// SNORD29 /// SNORD31 / Fold change (Aza/veh), C12orf56 (ProbeSet 11735607_a_at) / Fold change (ACY-1035/veh), C12orf56 (ProbeSet 11735607_a_at) / Fold change (Aza/veh), FGFR1OP (ProbeSet 11751329_s_at) / Fold change (ACY-1035/veh), FGFR1OP (ProbeSet 11751329_s_at) / Fold change (Aza/veh), VPS36 (ProbeSet 11739960_a_at) / Fold change (ACY-1035/veh), VPS36 (ProbeSet 11739960_a_at) / RFU SYPL1 (11715823_x_at) / Fold change /veh SYPL1 (11715823_x_at) / RFU IGFBP7 (11715501_s_at) / Fold change /veh IGFBP7 (11715501_s_at) / RFU REEP3 (11722064_at) / Fold change /veh REEP3 (11722064_at) / RFU IGLL1 (11728026_x_at) / Fold change /veh IGLL1 (11728026_x_at): dose or concentration left out as unconfirmed
Conditions: MV-4-11 cells, 48 hours

Nc1ncn([C@@H]2O[C@H](CO)[C@@H](O)[C@H]2O)c(=O)n1 [azacitidine]
Fold change /veh CMKLR1 (11741424_a_at): 1.02
